Assay results as given in article PMC4002121, “Trimethylation of Histone H3 Lysine 36 by Human Methyltransferase PRDM9 Protein” (The Journal of Biological Chemistry, 2014).
“Also recorded” adds a separate entry of the source.

Tests used:
[1] = biological target: T1, PRDM9 (Homo sapiens, UniProt Q9NQV7); assay: Screening PRDM9 against known histone methyltransferase inhibitor library; type: biochemical; conditions: 2.5 μM H3K36me2 peptide, 62 μM AdoMet, 1 nM PRDM9, 10 mM Tris-HCl pH 8.5, 10 mM DTT, 0.01% Triton X-100, 1% DMSO, 30 min, 23 °C; triplicate
T1 construct: The wild-type PRDM9 gene (amino acids 195–385) was amplified by PCR; His tag (cleaved yes); made in house; host or cells: E. coli BL21(DE3)pRARE2-V2R
T1 sequence (Q9NQV7 195-385): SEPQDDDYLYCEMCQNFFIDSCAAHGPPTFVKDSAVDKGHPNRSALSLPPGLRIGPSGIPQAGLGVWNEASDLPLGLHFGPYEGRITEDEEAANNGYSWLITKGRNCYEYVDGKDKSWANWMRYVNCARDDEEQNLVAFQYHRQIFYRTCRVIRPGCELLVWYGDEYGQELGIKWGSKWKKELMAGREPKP
Method: The Z-factor was determined to ensure the optimized assay was amenable to high-throughput screening in a 384-well format ([46]). […] PRDM9 was then screened against a small library of known histone methyltransferase inhibitors using H3K36me2 as substrate under optimized assay conditions. In this assay, 1 nM PRDM9 was incubated with 2.5 μM H3K36me2 peptide, 62 μM AdoMet in a reaction buffer (10 mM Tris-HCl, pH 8.5, 10 mM DTT, 0.01% Triton X-100) along with compounds ranging in concentrations from 0 to 100 μM, with a final DMSO concentration of 1%. Reactions were incubated at 23 °C for 30 min. The IC50 value was determined for suramin using SigmaPlot.
FIGURE 5. […] Experiments were performed in triplicate as described under “Experimental Procedures.”

[2] = biological target: T1, PRDM9; assay: Assay optimization: effect of pH, salt and additives on PRDM9 activity; type: biochemical
Method: Samples were incubated for 1 h at 23 °C and reactions were quenched by addition of 20 μl of 7.5 M guanidinium hydrochloride followed by addition of 160 μl of 20 mM Tris-HCl buffer, pH 8.0. Samples were added to wells of a streptavidin/scintillant-coated microplate (FlashPlate® PLUS: PerkinElmer Life Sciences).
FIGURE 3.

[3] = biological target: T1, PRDM9; assay: PRDM9 substrate specificity, radioactivity-based histone peptide methylation assay; type: biochemical; conditions: 10 μM biotinylated peptide, 200 μM AdoMet, 1 nM PRDM9, 10 mM Tris-HCl pH 8.5, 0.01% Triton X-100, 10 mM DTT, 30 min, 23 °C; n = 4
Method: In this assay [^3H]AdoMet (PerkinElmer Life Sciences; catalog number NET155V250UC) was used as a methyl donor to methylate biotinylated histone peptide substrates. […] Samples were incubated for 30 min at 23 °C and the reaction was quenched by addition of 20 μl of 7.5 M guanidinium hydrochloride followed by addition of 160 μl of 20 mM Tris-HCl buffer, pH 8.0. Samples were added to wells of a streptavidin/scintillant-coated microplate (FlashPlate® PLUS; PerkinElmer Life Sciences). Biotinylated peptides would be captured in each well through their interaction with streptavidin, thereby bringing any incorporated [^3H]methyl in proximity of scintillant.
FIGURE 1. […] Data are presented as mean ± S.D. from four experiments.

[4] = tested on: PRDM9; conditions: cited from earlier work
Source text: Although PRDM9 H3K4 methyltransferase activity has been previously reported ([28]), to our knowledge its activity and substrate specificity have not been fully characterized. […] Our binding data also indicated tight H3K4 peptide binding (low micromolar). Previously, Hayashi et al. ([28]) reported that GST-PRDM9 specifically catalyzed met ...

[5] = biological target: T1, PRDM9; assay: Isothermal titration calorimetry (ITC) binding to PRDM9; conditions: AdoMet 1 mM injected into 50 μM PRDM9, 25 °C, 20 mM Tris-HCl pH 8.5, one-binding site model
Method: Purified PRMD9 was dialyzed overnight in 20 mM Tris-HCl buffer, pH 8.5. […] ITC titrations were performed on a VP-ITC Micro Calorimeter from GE Healthcare at 25 °C by using 10-μl injections with a total of 25 injections. Data were fitted with a one-binding site model using Microcal Origin software.
FIGURE 7. […] Experiments were performed in duplicate.

[6] = tested on: HEK293 cells; assay: H3K4 and H3K36 methylation in HEK293 cells overexpressing PRDM9, immunoblotting; type: cell-based, human; conditions: normalized to total H3
Method: A FLAG-tagged control vector or FLAG-tagged PRDM9 construct were transfected into HEK293 cells using GeneJuice (Novagen). Transfected cells were serum-deprived prior to lysis in 50 mM Tris-HCl, 400 mM NaCl, 1 mM EDTA, 0.1% SDS, and 1% Triton X-100 supplemented with protease inhibitors. 30 μg of total cell lysate were processed for Western blotting and immunoblotted using specific antibodies to monitor the levels of H3K36me1 (Abcam, ab9048), H3K36me2 (Cell signaling Technology, 2901), H3K36me3 (Cell Signaling Technology, number 9763), H3K4me1 (Cell Signaling Technology, 9723), H3K4me2 (Abcam, ab32356), H3K4me3 (Cell Signaling Technology, number 9727S), and total H3 (Abcam, ab10799). The transfection efficiency of FLAG-PRDM9 was controlled by using an anti-FLAG antibody (FLAG M2 monoclonal, Sigma). Membrane bands were visualized using LiCor IRDye, 680RD anti-rabbit and 800CW anti-mouse secondary antibodies.
FIGURE 8. Trimethylation of H3K4 and H3K36 by PRDM9 in cells. […] Methylation levels of Lys-4 and Lys-36 were quantified and normalized to their respective total H3 levels. FLAG-PRDM9-transfected samples were normalized to samples transfected with FLAG Control vector. IB, immunoblot; CTL, control.

[7] = tested on: sterile mouse hybrids; conditions: via baculovirus; cited from earlier work
Source text: PRDM9 is a PR domain-containing protein with multiple zinc fingers that catalyze trimethylation of H3K4 ([28]). It is a meiosis-specific protein that has been reported to control activation of the short highly recombinogenic segments called recombination hot spots ([50]). The H3K4me3 mark is often associated with transcriptional activation ([51], [52]) and DNA repair ([53]). This methyl mark is also associated with recombination hot spot initiation in yeast and mice ([35], [36]) where double strand breaks occur prior to crossover events. However, H3K4me3 marks associated with hot spots are dis ...

[8] = H3-(1–25) substrate 10 μM, 40 μM AdoMet, 100 nM PRDM9, 10 mM Tris-HCl pH 8.5, 1 h, 23 °C, n = 4
[9] = H3-(1–25) substrate, 10 mM Tris-HCl pH 8.5

Question: For `Cc1ccc(C(=O)Nc2ccc(S(=O)(=O)O)c3cc(S(=O)(=O)O)cc(S(=O)(=O)O)c23)cc1NC(=O)c1cccc(NC(=O)Nc2cccc(C(=O)Nc3cc(C(=O)Nc4ccc(S(=O)(=O)O)c5cc(S(=O)(=O)O)cc(S(=O)(=O)O)c45)ccc3C)c2)c1` [suramin], which IC50 [1] is on record?
Answer: The IC50 was 4.1 ± 0.1 µM.

Question: For `[Cl-].[Na+]` [NaCl], which “NaCl concentration above which enzyme activity was abolished” value [2, 8] is on record?
Answer: The value was “above 125 mM”.

Question: And the “effect on PRDM9 activity (in words)” value [2, 8]?
Answer: Its value is “sharp decrease in activity with increasing NaCl concentrations”.

Question: Which “effect on PRDM9 activity (in words)” value [2, 8] does the source give for Triton X-100 here?
Answer: Its value is “Higher concentrations of Triton X-100 up to 0.25% did not further increase the activity”.

Question: What about the “Triton X-100 concentration that dramatically improved signal to noise ratio” value ([2]; concentrations as low as, H3-(1–25) substrate, 10 mM Tris-HCl pH 8.5) of the same molecule?
Answer: The value was ≥ 0.004%.

Question: With `C[S+](C)[O-]` [DMSO, dimethyl sulfoxide] as the molecule, how does the “effect on PRDM9 activity (in words)” value [2, 8] read?
Answer: The value was “maintained high levels of activity at all concentrations of DMSO”.

Question: And the “DMSO concentration of maximum PRDM9 activity” value [2, 9]?
Answer: The value was 0.16%.

Question: Which “effect on PRDM9 activity (in words)” value [2, 8] does the source give for `O[C@@H](CS)[C@@H](O)CS` [DTT] here?
Answer: Its value is “increase in enzyme activity”.

Question: And the “concentration of maximal PRDM9 activity (reducing agent)” value [2, 9]?
Answer: The value was 10 mM.

Question: Which “PRDM9 methyltransferase activity with substrate (in words)” value (from here on “PRDM9 methyltransferase activity”) [3] does the source give for K4A: K4A mutant of H3-(1–25) peptide here?
Answer: Its value is “No activity”.

Question: With “H3-(26–45): histone H3-(26–45) peptide on a peptide array” as the molecule, how does the “binding of PRDM9 to peptide on a peptide array (in words)” value [4] read?
Answer: Its value is “Binding”.

Question: For `C[S+](CC[C@H](N)C(=O)[O-])C[C@H]1O[C@@H](n2cnc3c(N)ncnc32)[C@H](O)[C@@H]1O` (stereo partly shown) [AdoMet, S-adenosylmethionine], which Kd [5] is on record?
Answer: The Kd was 18.6 µM.

Question: With `O=C(O)CCP(CCC(=O)O)CCC(=O)O` [TCEP, Tris(2-carboxyethyl)phosphine] as the molecule, how does the “effect on PRDM9 activity (in words)” value [2, 8] read?
Answer: The value was “sharp decrease in activity at increasing TCEP concentrations”.

Question: What about the “concentration of maximal PRDM9 activity (reducing agent)” value [2, 9] of the same molecule?
Answer: The value was 0.6 mM.

Question: What does the source list for “PRDM9: PR domain-containing protein 9, histone methyltransferase; FLAG-tagged in cells, residues 195–385 in vitro”?
Answer: mono- or dimethylation of H3K4 and H3K36 in cells (in words) ([6]; HEK293 cells overexpressing PRDM9): not mono- or dimethylation of either mark; trimethylation of H3K4 and H3K36 in cells (in words) ([6]; HEK293 cells transfected with FLAG-PRDM9 vs FLAG control vector): significant increase in trimethylation of H3K4 and H3K36; also recorded: significant increase in H3K36 trimethylation as well as H3K4 trimethylation; effect on sterile phenotype of mouse hybrids (in words) [7]: rescued the sterile phenotype

Question: Which “PRDM9 methyltransferase activity” value [3] does the source give for “H3K36A: H3-(21–44) peptide with Lys-36 mutated to alanine” here?
Answer: The value was “not when Lys-36 was trimethylated or mutated to alanine”.

Question: For “K4AK9A: K4AK9A mutant of H3-(1–25) peptide”, which “PRDM9 methyltransferase activity” value [3] is on record?
Answer: Its value is “No activity”.
